Measured values taken from patent publication US7732200B2, “Materials and methods for nerve grafting, selection of nerve grafts, and in vitro nerve tissue culture” (University of Florida Research Foundation, Inc., priority 2001, dated 2010).

Key:
[1] = tested on: embryonic chick DRG neurons; test: Cryoculture bioassay of chondroitinase-treated acellular rat nerve segments; assay type: cell-based
Excerpt: Preparation of acellular nerve grafts treated with chondroitinase: Adult (180-200 g) female SPRAGUE DAWLEY rats (HARLAN, Indianapolis, Ind.) were used as nerve donors and recipient hosts. Donor rats were anesthetized with halothane and decapitated. Sciatic nerves were exposed through a gluteal muscle-splitting incision and isolated free of underlying fascia. A 15-mm nerve segment was excised rostral to the bifurcation into common peroneal and tibial nerves. The segments were rinsed with cold sterile Ringer's solution, stabilized by pinning the ends to a thin plastic support, and transferred to a cryogenic vial. The vials were submerged in liquid nitrogen for 2 minutes and then transferred to a 37° C. water bath for 2 minutes. This freeze/thaw cycle was repeated, yielding acellular nerve grafts that were then stored in liquid nitrogen. On the day before grafting, the nerve grafts were warmed to room temperature and incubated in 100 μl phosphate buffered saline pH 7.4 (PBS) containing 2 units/ml chondroitinase ABC (SIGMA, St. Louis, Mo.) or in PBS (vehicle) only for 16 hours at 37° C. The grafts were rinsed twice with Ringer's and kept on ice prior to use. The chondroitinase ABC preparation was highly purified and stated by the manufacturer to be essentially free of protease activity.
Cryoculture bioassay. Cryoculture is a neurite outgrowth assay in which neurons are cultured directly on fresh/frozen nerve sections and was performed as described previously (Ferguson T A et al. [2000] Mol Cell Neurosci, 16:157-167). Briefly, chondroitinase- and vehicle-treated nerve segments were sectioned at 20 μm, mounted on sterile, aminopropyltriethoxysilane (APTS)-coated coverslips and stored at −20° C. until used. Where indicated, sections were treated with chondroitinase ABC (0.1 unit/ml) or vehicle (50 mM Tris-HCl, pH 8.0), containing 50 mM NaCl) for 2 h at 37° C. Purified dorsal root ganglionic (DRG) neurons from day 8 chick embryos were seeded directly on the nerve sections in a defined N2 medium (Bottenstein J E et al. [1980] Exp Cell Res 125:183-190) containing 10 ng/ml nerve growth factor. Cryoculture assays were terminated after 24 h of incubation by fixation with 100% methanol. Neuritic growth by DRG neurons was accessed by GAP-43 immunofluorescent labeling. […] Neurite lengths were measured directly using IMAGE-PRO PLUS software (MEDIA CYBERNETICS, Silver Springs, Md.). At least 250 neurons with neurites greater than one cell body (˜15 μm) were scored for each condition in each experiment.
Inactivation of inhibitory CSPG in chondroitinase-treated acellular nerve was determined by cryoculture bioassay. Embryonic chick DRG neurons were seeded onto sections of prepared nerve segments and the neurite-promoting activity was assessed by scoring neurite growth. […]

CSPG = CSPG neoepitope immunolabeling of chondroitinase-treated human nerve segments
Excerpt: Many of the experiments described in the examples above performed using rat nerves also have been replicated using human nerve. Except where otherwise indicated, the procedures described in Examples 1 and 2 using rat nerve were also followed in Examples 6 and 7 using human nerve. Human sural and tibial nerves were obtained fresh from surgical leg amputation.
Human nerves were first examined to determine if their content of CSPG and laminin was similar to that observed in rat nerves. […] Human nerves stained for CSPG neoepitope and laminin are shown, respectively, in FIGS. 9A and 9B.

chondroitinase ABC
average neurite length ([1]; acellular nerve pretreated en bloc, DRG neurons 24 h): 96 μm
increase in neurite growth compared to the control condition ([1]; en bloc treatment vs en bloc vehicle): 95%
increase in neurite-promoting activity by post-treatment of sections ([1]; nerve treated en bloc with vehicle only, sections post-treated 0.1 unit/ml 2 h): 86%
effect of post-treatment on sections from en bloc treated nerve ([1]; sections of en bloc chondroitinase-treated nerve grafts): only a slight additive effect
CSPG side chain degradation by neoepitope labeling (CSPG): effectively degraded
